{"source": "patent US20200399632A1", "about": "“SENSOR SYSTEMS” (enEvolv, Inc., priority 2018, published 2020)", "key": {"[1]": {"system": "E. coli BW25113 Δptsl::kanR pSENSORGFP-PtsI sensor strain", "test": "GFP fluorescence of sensor cells encapsulated in droplets with naringenin (microscope)", "type": "cell-based", "settings": "500 μM naringenin with sensor cells; 33° C., 48 hours; FIG. 5d", "text": "FIGS. 4A-B establish co-culturing of producer cells and sensor cells as a viable strategy for screening. Sensor cells were engineered in an E. coli BW25113 Δptsl::kanR background, which is unable to grow on glucose as a sole carbon source. The glucose transporter ptsl and fluorescence reporter gfp were expressed co-cistronically under the control of a TtgR-regulated promoter on the plasmid pSENSORGFP-PtsI, such that growth and the magnitude of GFP signal are naringenin-dependent. […] Following incubation, the water-in-oil droplets were encapsulated in another aqueous phase, generating water-in-oil-in-water droplets, which were observed on a standard fluorescence activated cell sorter (FACS). […]\n2E6 pNARnull, 2E6 pNAR^low, 2E6 pNARhigh, were co-cultured with the E. coli BW25113 Δptsl::kanR pSENSORGFP-PtsI sensor strain described in Example 3. […] Double emulsions were analyzed under the microscope prior to FACS analysis. […]"}, "[2]": {"test": "Diffusion between droplets: naringenin droplets co-incubated with sensor cell droplets", "type": "physicochemical", "settings": "droplets with 500 μM naringenin mixed with sensor cell droplets; 1% Ran Fluorosurfactant in HFE7500; FIG. 6", "description": "FIG. 6 is an image showing fluorescence of two sets of droplet co-incubated for 24 hours. The first set of droplets contained 500 μM naringenin and the second set of droplets contained naringenin sensor cells. If diffusion was occurring between the droplets, the sensor cells would become fluorescent over the 24 hour period.\n2E6 pNARnull, 2E6 pNAR^low, 2E6 pNARhigh, were co-cultured with the E. coli BW25113 Δptsl::kanR pSENSORGFP-PtsI sensor strain described in Example 3. The four cultures were grown overnight in LB medium, subdiluted 1 to 100 in minimal medium supplemented with the appropriate antibiotic and then grown into log phase. Once in log phase, the E. coli were rinsed 3× with 1× filtered M9 salts and then diluted to an OD600 of 1.0. The 2E6 strains were diluted to an OD600 of 0.01 to ensure that a single producer strain is present in each encapsulated droplet and the sensor cells were diluted to 0.1 to ensure that each droplet gets at least 5 sensor cells. Six sets of droplets were produced, (1) sensor cell only, (2) sensor cell with 500 μM naringenin, (3) 2E6 pNARhigh with sensor cell and 1 mM IPTG, (4) 2E6 pNARnull with sensor cell and 1 mM IPTG, (5), 2E6 pNARlow with sensor cell and 1 mM IPTG, and (6) naringenin only droplets. […] Double emulsions were analyzed under the microscope prior to FACS analysis. […]"}, "TtgR": {"system": "TtgR", "test": "TtgR sensor GFP response of MAGE-engineered E. coli MG1655 mutants to exogenously applied naringenin", "type": "cell-based", "settings": "naringenin 0, 31, 63 or 125 μM; three MAGE-engineered E. coli MG1655 clones, medium-copy plasmid with TtgR and gfp", "text": "The three clones were transformed with a medium-copy plasmid harboring TtgR and gfp under the control of an engineered ttgAp promoter. […] No naringenin pathway enzymes were present during these experiments, eliminating any interference by endogenously produced naringenin. The variation was not resolved upon transferring the sensor system to the genome (not shown) or switching to a high-copy sensor plasmid (FIG. 2A)."}}}
{"smiles": "O=C1C[C@@H](c2ccc(O)cc2)Oc2cc(O)cc(O)c21", "note": "[naringenin]", "values": [{"measurement": "fluorescence of positive control droplets", "setting": "[1]", "result": "very fluorescent"}, {"measurement": "diffusion between droplets", "setting": "[2]", "result": "no diffusion between droplets"}, {"measurement": "GFP expression induced in TtgR sensor strains", "setting": "TtgR", "result": "induced different levels of GFP expression"}]}
